Common to all, as to type: functional
The subject of experiment [1] is Rattus norvegicus. As to the kind of experiment: Antihypertensive activity rating in conscious SHR after 1 hr post dose at 3 mg/kg (po).
The subject of experiment [2] is Rattus norvegicus. The experiment can be described thus: Antihypertensive activity rating in conscious SHR after 24 hr post dose at 0.3 mg/kg (po).
Experiment [3] has as its system Rattus norvegicus. As to the kind of experiment: Antihypertensive activity rating in conscious SHR after 24 hr post dose at 3 mg/kg (po).
The test system of experiment [4] is Rattus norvegicus. As to the kind of experiment: Antihypertensive activity rating in conscious SHR after 3 hr post dose at 0.3 mg/kg (po).
Experiment [5] has as its system Rattus norvegicus. As to the kind of experiment: Antihypertensive activity rating in conscious SHR after 3 hr post dose at 1 mg/kg (po).
The subject of experiment [6] is Rattus norvegicus. The experiment can be described thus: Antihypertensive activity rating in conscious SHR after 3 h post dose at 3 mg/kg (po).
Experiment [7] relates to Rattus norvegicus. The experiment can be described thus: Antihypertensive activity rating in conscious SHR after 6 hr post dose at 0.3 mg/kg (po).
Experiment [8] concerns Rattus norvegicus. The experiment can be described thus: Antihypertensive activity rating in conscious SHR after 6 hr post dose at 1 mg/kg (po).
Experiment [9] concerns Rattus norvegicus. As to the kind of experiment: Antihypertensive activity rating in conscious SHR after 6 hr post dose at 3 mg/kg (po).
Experiment [10] has as its system Rattus norvegicus. As to the kind of experiment: Antihypertensive activity rating in conscious SHR after 1 hr post dose at 0.3 mg/kg (po).
The subject of experiment [11] is Rattus norvegicus. As to the kind of experiment: Antihypertensive activity rating in conscious SHR after 1 hr post dose at 1 mg/kg (po).
The subject of experiment [12] is Rattus norvegicus. The experiment can be described thus: Maximum percent decrease in blood pressure in SHR dosed at 1 mg/kg (hour post dose in parentheses).
Experiment [13] has as its system Rattus norvegicus. The experiment can be described thus: Maximum percent decrease in blood pressure in SHR dosed at 0.3 mg/kg (hour post dose in parentheses).
The test system of experiment [14] is Rattus norvegicus. As to the kind of experiment: Maximum percent decrease in blood pressure in SHR dosed at 3 mg/kg (hour post dose in parentheses).
Experiment [15] has as its system Rattus norvegicus. The experiment can be described thus: Antihypertensive activity rating in conscious SHR after 24 hr post dose at 1 mg/kg (po).
Experiment [16] deals with Rattus norvegicus. The experiment can be described thus: Effect on blood pressure (initial) in renal hypertensive rats dosed at 10 mg/kg.
The subject of experiment [17] is Rattus norvegicus. As to the kind of experiment: Effect on blood pressure in renal hypertensive rats dosed at 10 mg/kg after 3 h.
Experiment [18] concerns Rattus norvegicus. The experiment can be described thus: Effect on blood pressure in renal hypertensive rats dosed at 10 mg/kg after 6 h.
The test system of experiment [19] is Rattus norvegicus. As to the kind of experiment: Effect on blood pressure in renal hypertensive rats dosed at 3 mg/kg after 1 h.
Experiment [20] relates to Rattus norvegicus. As to the kind of experiment: Effect on blood pressure in renal hypertensive rats dosed at 3 mg/kg after 12 h.
Experiment [21] relates to Rattus norvegicus. As to the kind of experiment: Effect on blood pressure in renal hypertensive rats dosed at 3 mg/kg after 24 h.
Experiment [22] concerns Rattus norvegicus. The experiment can be described thus: Effect on blood pressure in renal hypertensive rats dosed at 3 mg/kg after 6 h.
The test system of experiment [23] is Rattus norvegicus. The experiment can be described thus: Effect on mean blood pressure (initial) in renal hypertensive rats dosed at 3 mg/kg.
Experiment [24] is filed under the species Rattus norvegicus. The experiment can be described thus: Compound was tested for alpha-adrenoceptor blocking activity by its ability to antagonize norepinephrine contraction in the rat thoracic aorta. To be noted: read-out: pA2 (converted).
Experiment [25] deals with Rattus norvegicus. As to the kind of experiment: Effect on blood pressure in renal hypertensive rats dosed at 10 mg/kg after 1 h.
For experiment [26], the system named is Rattus norvegicus. As to the kind of experiment: Effect on blood pressure in renal hypertensive rats dosed at 10 mg/kg after 12 h.
In experiment [27] the test system is Rattus norvegicus. The experiment can be described thus: Effect on blood pressure in renal hypertensive rats dosed at 10 mg/kg after 24 h.
The nature of experiment [28]: Potency ratio in rat thoracic aorta.
The test system of experiment [29] is Rattus norvegicus. As to the kind of experiment: Effect on blood pressure in renal hypertensive rats dosed at 3 mg/kg after 3 h.
The test system of experiment [30] is Rattus norvegicus. The experiment can be described thus: Effect on blood pressure in renal hypertensive rats dosed at 10mg/kg, po after 1 h.
Experiment [31] concerns Rattus norvegicus. As to the kind of experiment: Effect on blood pressure in renal hypertensive rats dosed at 10 mg/kg, po after 24 h.
Experiment [32] has as its system Rattus norvegicus. The experiment can be described thus: Effect on blood pressure in renal hypertensive rats dosed at 10 mg/kg, po after 3 h.
Experiment [33] deals with Rattus norvegicus. As to the kind of experiment: Effect on blood pressure in renal hypertensive rats dosed at 10mg/kg, po after 6 h.
In experiment [34] the test system is Rattus norvegicus. The experiment can be described thus: Effect on blood pressure in renal hypertensive rats dosed at 3 mg/kg, po after 1 h.
Experiment [35] deals with Rattus norvegicus. As to the kind of experiment: Effect on blood pressure in renal hypertensive rats dosed at 3 mg/kg, po after 24 h.
The test system of experiment [36] is Rattus norvegicus. The experiment can be described thus: Effect on blood pressure in renal hypertensive rats dosed at 3 mg/kg, po after 3 h.
Experiment [37] deals with Rattus norvegicus. As to the kind of experiment: Effect on blood pressure in renal hypertensive rats dosed at 3 mg/kg, po after 6 h.
The subject of experiment [38] is Rattus norvegicus. The experiment can be described thus: Effect on mean blood pressure (initial) in renal hypertensive rats dosed at 3 mg/kg, po.
Experiment [39] relates to Rattus norvegicus. As to the kind of experiment: Effect on blood pressure (initial) in renal hypertensive rats dosed at 10mg/kg, po.

For the compound `COc1cc2nc(N3CCN(C(=O)/C=C/c4ccsc4)CC3)nc(N)c2cc1OC`, the Activity with Rattus norvegicus [1] came to 2; in the experiment on Rattus norvegicus [2], 0; in the experiment with Rattus norvegicus [3] it was 0; with Rattus norvegicus [4], 1; with Rattus norvegicus [5] it was 1; in the experiment with Rattus norvegicus [6] it was 1. The Activity in the experiment on Rattus norvegicus [7] is on record as 1; in the experiment with Rattus norvegicus [8] it was 1; in the experiment with Rattus norvegicus [9] it was 1; with Rattus norvegicus [10] it was 1; with Rattus norvegicus [11], 1; in the experiment with Rattus norvegicus [15], 0. For the same compound, the Decrease was 19% in the experiment on Rattus norvegicus [12], 11% in the experiment with Rattus norvegicus [13] and 25% in the experiment on Rattus norvegicus [14].

Regarding `CCOc1ccc(/C=C/C(=O)N2CCN(c3nc(N)c4cc(OC)c(OC)cc4n3)CC2)cc1`, the Activity in the experiment with Rattus norvegicus [1] was 0; with Rattus norvegicus [2], 1; in the experiment on Rattus norvegicus [3], 0; in the experiment on Rattus norvegicus [4], 0; in the experiment with Rattus norvegicus [5] it was 1; with Rattus norvegicus [6] it was 1. The Activity in the experiment with Rattus norvegicus [7] is on record as 0; with Rattus norvegicus [8], 2; in the experiment with Rattus norvegicus [9], 2; in the experiment with Rattus norvegicus [10] it was 0; with Rattus norvegicus [11], 0; in the experiment on Rattus norvegicus [15], 0. In addition, the Decrease was 21% in the experiment with Rattus norvegicus [12], 13% in the experiment on Rattus norvegicus [13] and 24% in the experiment with Rattus norvegicus [14]. Also, the Mean blood pressure in the experiment with Rattus norvegicus [16] is reported as 204 mmHg; with Rattus norvegicus [17] it was -16.3 mmHg; in the experiment with Rattus norvegicus [18], -19.1 mmHg; in the experiment with Rattus norvegicus [19], -4 mmHg; in the experiment with Rattus norvegicus [20] it was -10.6 mmHg; in the experiment on Rattus norvegicus [21], -2.6 mmHg. The Mean blood pressure with Rattus norvegicus [22] is -14.5 mmHg; in the experiment on Rattus norvegicus [23], 203 mmHg; with Rattus norvegicus [25] it was -6.2 mmHg; with Rattus norvegicus [26], -15.5 mmHg; in the experiment on Rattus norvegicus [27], -10.4 mmHg; in the experiment on Rattus norvegicus [29], -11.7 mmHg. Further, the Kb in the experiment listed under Rattus norvegicus [24] was 2.19 nM. In addition, in [28], the Ratio came out at 0.02.

For `COc1cc2nc(N3CCN(C(=O)/C=C/c4ccccc4)CC3)nc(N)c2cc1OC`, the Activity in the experiment with Rattus norvegicus [1] is 2; in the experiment with Rattus norvegicus [2], 0; in the experiment on Rattus norvegicus [3] it was 0; with Rattus norvegicus [4], 0; in the experiment on Rattus norvegicus [5], 1; with Rattus norvegicus [6], 1. Besides, the Activity in the experiment with Rattus norvegicus [7] is listed as 1; with Rattus norvegicus [8] it was 1; in the experiment on Rattus norvegicus [9], 1; in the experiment with Rattus norvegicus [10] it was 0; in the experiment with Rattus norvegicus [11], 1; with Rattus norvegicus [15], 0. The figures for the Decrease in the experiment with Rattus norvegicus [12], in the experiment with Rattus norvegicus [13] and in the experiment on Rattus norvegicus [14] were 14%, 10% and 22%, respectively. Also, the Mean blood pressure with Rattus norvegicus [16] was 199 mmHg; with Rattus norvegicus [17], -14.1 mmHg; in the experiment on Rattus norvegicus [18], -15.9 mmHg; in the experiment with Rattus norvegicus [19], -3.7 mmHg; in the experiment with Rattus norvegicus [21] it was -0.1 mmHg; in the experiment with Rattus norvegicus [22], -7.2 mmHg. In addition, the Mean blood pressure with Rattus norvegicus [23] was 195 mmHg; in the experiment on Rattus norvegicus [25] it was -12.6 mmHg; in the experiment with Rattus norvegicus [27], -14.1 mmHg; in the experiment on Rattus norvegicus [29], -6.8 mmHg. Besides, the Kb in the experiment filed under Rattus norvegicus [24] was 0.724 nM. In addition, the Ratio in [28] came to 0.07.

On to `COc1cc2nc(N3CCN(C(=O)/C=C/c4ccco4)CC3)nc(N)c2cc1OC.Cl`, for which the Activity in the experiment with Rattus norvegicus [1] is 3; in the experiment on Rattus norvegicus [2], 0; in the experiment on Rattus norvegicus [3], 0; in the experiment with Rattus norvegicus [4], 1; with Rattus norvegicus [5] it was 1; with Rattus norvegicus [6], 2. Further, the Activity is listed as 1 in the experiment on Rattus norvegicus [7]; 2 in the experiment on Rattus norvegicus [8]; 2 in the experiment on Rattus norvegicus [9]; 1 with Rattus norvegicus [10]; 2 in the experiment on Rattus norvegicus [11]; 0 in the experiment with Rattus norvegicus [15]. Further, the Decrease is 28% with Rattus norvegicus [12], 15% in the experiment on Rattus norvegicus [13] and 41% in the experiment with Rattus norvegicus [14]. Moreover, the Mean blood pressure is 181 mmHg with Rattus norvegicus [16]; -16.3 mmHg with Rattus norvegicus [17]; -17.4 mmHg in the experiment on Rattus norvegicus [18]; -17.1 mmHg in the experiment on Rattus norvegicus [19]; -5.2 mmHg in the experiment with Rattus norvegicus [21]; -18.3 mmHg in the experiment on Rattus norvegicus [22]. Further, the Mean blood pressure is listed as 193 mmHg with Rattus norvegicus [23], -17.9 mmHg with Rattus norvegicus [25], -11.7 mmHg with Rattus norvegicus [27] and -16.9 mmHg in the experiment on Rattus norvegicus [29]. Besides, the Kb in the experiment listed under Rattus norvegicus [24] is 0.141 nM. The Ratio in [28] is 0.4.

Consider `Cc1ccc(N(CC2=NCCN2)c2cccc(O)c2)cc1` [PHENTOLAMINE], for which, in the experiment filed under Rattus norvegicus [24], the Kb is 8.51 nM. The Ratio in experiment [28] stood at 0.006.

Turning to `COc1cc2nc(N3CCN(C(=O)c4ccco4)CC3)nc(N)c2cc1OC.Cl` [PRAZOSIN HYDROCHLORIDE], the Activity stood at 2 in the experiment on Rattus norvegicus [1]; 0 with Rattus norvegicus [2]; 0 with Rattus norvegicus [3]; 1 in the experiment on Rattus norvegicus [4]; 2 in the experiment with Rattus norvegicus [5]; 1 with Rattus norvegicus [6]. In addition, the Activity is listed as 1 in the experiment with Rattus norvegicus [7]; 1 with Rattus norvegicus [8]; 1 in the experiment on Rattus norvegicus [9]; 1 in the experiment with Rattus norvegicus [10]; 2 in the experiment with Rattus norvegicus [11]; 0 in the experiment on Rattus norvegicus [15]. For the same compound, the Decrease in the experiment with Rattus norvegicus [12] is listed as 25%; in the experiment with Rattus norvegicus [13] it was 19%; in the experiment with Rattus norvegicus [14], 27%. The Mean blood pressure in the experiment on Rattus norvegicus [30] is -25.6 mmHg; with Rattus norvegicus [31], -8.9 mmHg; with Rattus norvegicus [32], -17.6 mmHg; with Rattus norvegicus [33] it was -14.7 mmHg; with Rattus norvegicus [34], -17.9 mmHg; in the experiment on Rattus norvegicus [35] it was -3.3 mmHg. Further, the Mean blood pressure in the experiment with Rattus norvegicus [36] is -15.5 mmHg; with Rattus norvegicus [37], -14.5 mmHg; in the experiment with Rattus norvegicus [38], 197 mmHg; in the experiment on Rattus norvegicus [39] it was 187 mmHg. Besides, the Kb in the experiment listed under Rattus norvegicus [24] is 0.0513 nM. In addition, the Ratio in experiment [28] was determined as 1.
